Where “and” joins values, the source holds several entries; their conditions need not be identical. Equal values may be shown once. Inconclusive results are not listed.
Tested on: nude mice, LX-1 lung xenograft intrarenal, tumor weight T/C
Assay: NCI In Vivo Anticancer Drug Screen. Data for tumor model Human Lung LX-1 Xenograft (intrarenal inoculation) in NU/NU Swiss (nude) mice
Settings: endpoint: mean tumor weight change, higher = larger tumour
In short: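 Activity was scored by measuring tumors in treated animals and in vehicle controls, then reporting the treated result as a fraction of the control result.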

[1] = dose: 400.0 mg/kg/injection, schedule: Q01DX010 (sc), vehicle: Klucel (hydroxypropylcellulose) (HPC)
[2] = dose: 200.0 mg/kg/injection, schedule: Q04DX003 (sc), vehicle: saline with Tween-80
[3] = dose: 800.0 mg/kg/injection, schedule: Q04DX003 (sc), vehicle: saline with Tween-80
[4] = dose: 6.25 mg/kg/injection, schedule: Q04DX003 (sc), vehicle: saline with Tween-80
[5] = dose: 12.5 mg/kg/injection, schedule: Q04DX003 (sc), vehicle: saline with Tween-80
[6] = dose: 25.0 mg/kg/injection, schedule: Q04DX003 (sc), vehicle: saline with Tween-80
[7] = dose: 300.0 mg/kg/injection, schedule: Q04DX003 (sc), vehicle: Klucel (hydroxypropylcellulose) (HPC)
[8] = dose: 600.0 mg/kg/injection, schedule: Q04DX003 (sc), vehicle: Klucel (hydroxypropylcellulose) (HPC)
[9] = dose: 1200.0 mg/kg/injection, schedule: Q04DX003 (sc), vehicle: Klucel (hydroxypropylcellulose) (HPC)
[10] = dose: 12.5 mg/kg/injection, schedule: Q01DX010 (sc), vehicle: saline
[11] = dose: 25.0 mg/kg/injection, schedule: Q01DX010 (sc), vehicle: saline
[12] = dose: 50.0 mg/kg/injection, schedule: Q01DX010 (sc), vehicle: saline
[13] = dose: 100.0 mg/kg/injection, schedule: Q01DX010 (sc), vehicle: saline

In the case of `N=[N+]=CC(=O)CCC(NC(=O)C(CCC(=O)C=[N+]=N)NC(=O)CCC(N)C(=O)O)C(=O)O` (stereo not drawn), the T/C (dose: 1.6 mg/kg/injection, schedule: Q04DX003 (sc), vehicle: water) is reported as 119 % of control, the T/C (dose: 3.2 mg/kg/injection, schedule: Q04DX003 (sc), vehicle: water) is reported as 86 % of control and the T/C (dose: 6.4 mg/kg/injection, schedule: Q04DX003 (sc), vehicle: water) is reported as 119 % of control. The T/C (dose: 12.8 mg/kg/injection, schedule: Q04DX003 (sc), vehicle: water) was 91 % of control.

In the case of `Cc1ccc(S(=O)(=O)N/N=C/C(=O)O)cc1`, the T/C (dose: 12.5 mg/kg/injection, schedule: Q01DX010 (sc), vehicle: Klucel (hydroxypropylcellulose) (HPC)) is reported as 98 % of control, the T/C (dose: 50.0 mg/kg/injection, schedule: Q01DX010 (sc), vehicle: Klucel (hydroxypropylcellulose) (HPC)) is reported as 37 % of control and 55 % of control and the T/C (dose: 200.0 mg/kg/injection, schedule: Q01DX010 (sc), vehicle: Klucel (hydroxypropylcellulose) (HPC)) is reported as 45 % of control. For the same compound, the T/C [1] was 58 % of control.

In the case of `COc1cc2c(c(OC)c1OC)-c1ccc(OC)c(=O)cc1[C@@H](NC(C)=O)CC2`, the T/C (dose: 0.25 mg/kg/injection, schedule: Q01DX010 (sc), vehicle: saline) is reported as 87 % of control and the T/C (dose: 0.5 mg/kg/injection, schedule: Q01DX010 (sc), vehicle: saline) is reported as 50 % of control.

For `Cc1ccc(N)c(N)c1`, the T/C [2] was 57 % of control, the T/C (dose: 400.0 mg/kg/injection, schedule: Q04DX003 (sc), vehicle: saline with Tween-80) was 74 % of control and the T/C [3] was 57 % of control.

With `Cc1cc2c(c3oc(C4(C)OC4C4OC4C)cc(=O)c13)C(=O)c1c(O)c(C3CC(C)(N(C)C)C(O)C(C)O3)cc(C3CC(N(C)C)C(O)C(C)O3)c1C2=O` (stereo not drawn) the T/C (dose: 0.03 mg/kg/injection, schedule: Q01DX010 (sc), vehicle: saline) was 57 % of control and the T/C (dose: 0.06 mg/kg/injection, schedule: Q01DX010 (sc), vehicle: saline) was 66 % of control.

With `C[CH2][Sn]([CH2]C)([O]S(C)(=O)=O)[O]S(C)(=O)=O` the T/C (dose: 3.13 mg/kg/injection, schedule: Q04DX003 (sc), vehicle: saline with Tween-80) was 107 % of control, the T/C [4] was 109 % of control and the T/C [5] was 102 % of control. For the same compound, the T/C [6] was 99 % of control.

For `O=NN(CCCl)C(=O)Oc1cc(Cl)c(Cl)cc1Cl`, the T/C [7] was 104 % of control, the T/C [8] was 53 % of control and the T/C [9] was 29 % of control.

With `CC(=O)[O][Pb]([O]C(C)=O)([c]1ccccc1)[c]1ccccc1` the T/C [1] was 40 % of control.

For `CN=C(N)N/N=C(\C)c1ccc2c(c1)Cc1cc(/C(C)=N/NC(N)=NC)ccc1-2`, the T/C [5] was 99 % of control, the T/C [6] was 90 % of control and the T/C (dose: 50.0 mg/kg/injection, schedule: Q04DX003 (sc), vehicle: saline with Tween-80) was 67 % of control. The T/C (dose: 100.0 mg/kg/injection, schedule: Q04DX003 (sc), vehicle: saline with Tween-80) was 69 % of control.

`COC12C(COC(N)=O)C3=C(C(=O)C(C)=C(N)C3=O)N1CC1C2N1C` (stereo not drawn) was tested, and the T/C (dose: 8.0 mg/kg/injection, schedule: Q01DX010 (sc), vehicle: saline) was 1 % of control and -17 % of control.

In the case of `COC(=O)C[C@](O)(CCC(C)(C)O)C(=O)O[C@@H]1C(OC)=C[C@]23CCCN2CCc2cc4c(cc2[C@H]13)OCO4`, the T/C (dose: 0.63 mg/kg/injection, schedule: Q04DX003 (sc), vehicle: saline) is reported as 115 % of control, the T/C (dose: 1.25 mg/kg/injection, schedule: Q04DX003 (sc), vehicle: saline) is reported as 110 % of control and the T/C (dose: 2.5 mg/kg/injection, schedule: Q04DX003 (sc), vehicle: saline) is reported as 95 % of control. The T/C (dose: 5.0 mg/kg/injection, schedule: Q04DX003 (sc), vehicle: saline) was 102 % of control.

With `CC[N+](CC)(CC)CC` the T/C (dose: 1.5 mg/kg/injection, schedule: Q01DX010 (sc), vehicle: saline with Tween-80) was 88 % of control and the T/C (dose: 12.0 mg/kg/injection, schedule: Q01DX010 (sc), vehicle: saline with Tween-80) was 25 % of control and 49 % of control.

In the case of `CC(=O)c1c(O)c(C)c(O)c2c1OC1=CC(=O)C(C(C)=O)C(=O)C12C` (stereo not drawn), the T/C (dose: 25.0 mg/kg/injection, schedule: Q01DX010 (sc), vehicle: sodium bicarbonate) is reported as 207 % of control, the T/C (dose: 50.0 mg/kg/injection, schedule: Q01DX010 (sc), vehicle: sodium bicarbonate) is reported as 102 % of control and the T/C (dose: 200.0 mg/kg/injection, schedule: Q01DX010 (sc), vehicle: sodium bicarbonate) is reported as 82 % of control and 104 % of control.

`COc1cccc2c1C(=O)c1c(O)c3c(c(O)c1C2=O)C[C@@](O)(C(=O)COC(=O)c1cccnc1)C[C@@H]3OC1CC(N)C(O)C(C)O1` (stereo partly drawn) was tested, and the T/C (dose: 3.0 mg/kg/injection, schedule: Q04DX003 (sc), vehicle: saline) was 120 % of control, the T/C (dose: 12.0 mg/kg/injection, schedule: Q04DX003 (sc), vehicle: saline) was 75 % of control and the T/C (dose: 24.0 mg/kg/injection, schedule: Q04DX003 (sc), vehicle: saline) was 83 % of control.

For `Oc1cc2ccccc2c(-c2c(O)c(O)cc3ccccc23)c1O`, the T/C (dose: 75.0 mg/kg/injection, schedule: Q04DX003 (sc), vehicle: saline with Tween-80) was 85 % of control, the T/C (dose: 150.0 mg/kg/injection, schedule: Q04DX003 (sc), vehicle: saline with Tween-80) was 108 % of control and the T/C (dose: 300.0 mg/kg/injection, schedule: Q04DX003 (sc), vehicle: saline with Tween-80) was 42 % of control. For the same compound, the T/C (dose: 600.0 mg/kg/injection, schedule: Q04DX003 (sc), vehicle: saline with Tween-80) was 52 % of control.

`O=C1C=CC(=O)N1c1ccc(Cl)cc1` was tested, and the T/C (dose: 37.5 mg/kg/injection, schedule: Q04DX003 (sc), vehicle: Klucel (hydroxypropylcellulose) (HPC)) was 116 % of control, the T/C (dose: 75.0 mg/kg/injection, schedule: Q04DX003 (sc), vehicle: Klucel (hydroxypropylcellulose) (HPC)) was 123 % of control and the T/C (dose: 150.0 mg/kg/injection, schedule: Q04DX003 (sc), vehicle: Klucel (hydroxypropylcellulose) (HPC)) was 85 % of control.

`O=C1[C@H]2CCC[C@H]2[C@H]2CCC[C@@H]12` was tested, and the T/C [2] was 166 % of control, the T/C [3] was 120 % of control and the T/C (dose: 1600.0 mg/kg/injection, schedule: Q04DX003 (sc), vehicle: saline with Tween-80) was 98 % of control.

For `COC(=O)[C@@]12OC[C@]34[C@H]([C@@H](O)[C@@H]1O)[C@@]1(C)CC(=O)C(O)=C(C)[C@@H]1C[C@H]3OC(=O)[C@H](OC(=O)/C=C(\C)C(C)C)[C@@H]24`, the T/C (dose: 0.25 mg/kg/injection, schedule: Q04DX003 (sc), vehicle: saline + alcohol) was 115 % of control, the T/C (dose: 0.5 mg/kg/injection, schedule: Q01DX010 (sc), vehicle: saline + alcohol) was 101 % of control and the T/C (dose: 0.5 mg/kg/injection, schedule: Q04DX003 (sc), vehicle: saline + alcohol) was 91 % of control. For the same compound, the T/C (dose: 1.0 mg/kg/injection, schedule: Q04DX003 (sc), vehicle: saline + alcohol) was 114 % of control and the T/C (dose: 2.0 mg/kg/injection, schedule: Q04DX003 (sc), vehicle: saline + alcohol) was 59 % of control.

`CCOC(=O)Nc1cc2c(c(N)n1)N=C(c1ccccc1)CN2` was tested, and the T/C (dose: 3.12 mg/kg/injection, schedule: Q04DX003 (sc), vehicle: saline with Tween-80) was 68 % of control, the T/C [4] was 82 % of control and 96 % of control and the T/C [5] was 73 % of control. The T/C [6] was 30 % of control and 54 % of control.

In the case of `COc1cc(C)c2c(c1C=O)Oc1c(c(C)c(O)c3c1C(O)OC3=O)OC2=O` (stereo not drawn), the T/C [10] is reported as 95 % of control, the T/C [11] is reported as 103 % of control and the T/C [12] is reported as 59 % of control. The T/C [13] was 32 % of control.

With `COC(=O)c1ccoc1` the T/C (dose: 150.0 mg/kg/injection, schedule: Q04DX003 (sc), vehicle: saline) was 107 % of control.

With `S=C=NCCc1ccccc1` the T/C (dose: 200.0 mg/kg/injection, schedule: Q01DX010 (sc), vehicle: saline with Tween-80) was 68 % of control.

In the case of `C1CN(P2(N3CC3)=NP(N3CC3)(N3CC3)=NP(N3CC3)(N3CC3)=N2)CCO1` (stereo not drawn), the T/C (dose: 6.25 mg/kg/injection, schedule: Q01DX010 (sc), vehicle: saline) is reported as 107 % of control, the T/C [10] is reported as 38 % of control and 43 % of control and 53 % of control and the T/C [11] is reported as 28 % of control and 29 % of control and 31 % of control. The T/C (dose: 25.0 mg/kg/injection, schedule: Q04DX003 (sc), vehicle: saline) was 74 % of control and 82 % of control, the T/C [12] was 6 % of control and 8 % of control and the T/C (dose: 50.0 mg/kg/injection, schedule: Q04DX003 (sc), vehicle: saline) was 23 % of control and 35 % of control. The T/C (dose: 100.0 mg/kg/injection, schedule: Q04DX003 (sc), vehicle: saline) was 25 % of control.

`CCc1ccccc1N1CCN(C(=O)c2cc(OC)c(OC)c(OC)c2)CC1` was tested, and the T/C [7] was 62 % of control, the T/C [8] was 34 % of control and the T/C [9] was 33 % of control. For the same compound, the T/C (dose: 2400.0 mg/kg/injection, schedule: Q04DX003 (sc), vehicle: Klucel (hydroxypropylcellulose) (HPC)) was 30 % of control.

With `COc1cc2cc3c4cc(OC)c(OC)cc4cc[n+]3c(C)c2cc1OC` (tested in a mixture with another compound) the T/C [12] was 118 % of control and the T/C [13] was 46 % of control.
